This is an account of results in PMC5681660, “Reduced hepatitis B and D viral entry using clinically applied drugs as novel inhibitors of the bile acid transporter NTCP” (Scientific Reports, 2017).

Where a name gives a salt, the structure may show the parent alone.

For the experiment, the target named is T1, human NTCP (Homo sapiens, UniProt Q14973).
T1 sequence (Q14973 1-349): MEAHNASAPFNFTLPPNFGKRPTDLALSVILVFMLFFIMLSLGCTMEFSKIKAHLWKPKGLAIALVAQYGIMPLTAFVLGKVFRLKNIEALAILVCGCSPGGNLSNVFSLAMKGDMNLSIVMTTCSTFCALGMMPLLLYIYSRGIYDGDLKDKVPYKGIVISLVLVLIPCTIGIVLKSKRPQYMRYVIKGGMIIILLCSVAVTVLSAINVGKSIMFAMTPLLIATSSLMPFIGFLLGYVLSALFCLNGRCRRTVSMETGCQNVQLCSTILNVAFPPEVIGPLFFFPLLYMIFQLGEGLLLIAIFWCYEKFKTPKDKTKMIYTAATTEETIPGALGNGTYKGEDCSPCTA
Kind of experiment: Screening taurocholate uptake assay (96-well, [14C]taurocholate, 10 µM drug). To be noted: for B-score functional assay: screening taurocholate uptake, 10 µM drug.

Setting [1] is: ranking over the functional and the binding screening assay.
[2] abbreviates: combined ranking of functional and binding screening assays.

For `C[C@@H]1O[C@@H](O[C@@H]2C=C3CC[C@@H]4[C@H](CC[C@]5(C)[C@@H](c6ccc(=O)oc6)CC[C@]45O)[C@@]3(C)CC2)[C@H](O)[C@H](O)[C@H]1O` [Proscillaridin A], the B-score functional assay is recorded as -2.06. The same compound displayed a Ranking score under setting [1] of 183.761.
As to `NC(=O)C[S+]([O-])C(c1ccccc1)c1ccccc1` (stereo not shown) [Modafinil], the B-score functional assay is 2.253. The Ranking score under setting [2] is on record as 485.699.
Take `COCC(=O)Nc1c(I)c(C(=O)NCC(O)CO)c(I)c(C(=O)N(C)CC(O)CO)c1I` (stereo not shown) [Iopromide]: the B-score functional assay is on record as -5.088. This compound also returned a Ranking score under setting [1] of 153.642.
The matching figures for `COc1c(O[C@@H]2O[C@H](CO)[C@@H](O)[C@H](O)[C@H]2O)cc2c(c1OC)-c1ccc(SC)c(=O)cc1[C@@H](NC(C)=O)CC2` [Thiocolchicoside]: -3.578 and 64.2729.
Take `CCCCC(CC)CN1CN(CC(CC)CCCC)CC(C)(N)C1` (stereo not shown) [Hexetidine]: the B-score functional assay is on record as 3.961. The Ranking score under setting [2] is 491.543.
In turn, `CCN1CCC[C@H]1CNC(=O)c1c(OC)ccc(Br)c1OC.Cl` [Remoxipride Hydrochloride] yielded a B-score functional assay of -0.058. For the same compound, the Ranking score under setting [2] worked out at 496.085.
The matching figures for `NC(=O)N/N=C/c1ccc([N+](=O)[O-])o1` [Nitrofural]: 0.068 and 535.985.
`CN(C)C/C=C(\c1ccc(Br)cc1)c1cccnc1.Cl.Cl.O` [Zimelidine dihydrochloride monohydrate]: the B-score functional assay is given as -1.216. The compound also had a Ranking score under setting [1] of 266.786.
`CC[N+](C)(CC)CCC[n+]1c(-c2ccccc2)c2cc(N)ccc2c2ccc(N)cc21.[I-].[I-]` [Propidium iodide]: the B-score functional assay was -1.35. In addition, the Ranking score under setting [2] is reported as 504.845.
`CC(C)(C(=O)O)c1ccc(C(O)CCCN2CCC(C(O)(c3ccccc3)c3ccccc3)CC2)cc1` (stereo not shown) [Fexofenadine HCl] returned a B-score functional assay of -2.318. Besides, under setting [1], the Ranking score amounted to 234.288.
For `C#Cc1cccc(Nc2ncnc3cc(OCCOC)c(OCCOC)cc23)c1` [Erlotinib], in that order: -3.126 and 239.996.
In the case of `OC(CCN1CCCC1)(c1ccccc1)C1CCCCC1` (stereo not shown) [Procyclidine hydrochloride], the B-score functional assay is recorded as -0.705. For the same compound, the Ranking score under setting [2] is recorded as 562.821.
The matching figures for `CCc1cccc(CC)c1NC(=O)CN(CC(=O)O)CC(=O)O` [Etifenin]: -0.065 and 532.717.
The matching figures for `COc1cc2nc(N3CCN(C(=O)C4CCCO4)CC3)nc(N)c2cc1OC` (stereo not shown) [Terazosin hydrochloride]: -0.092 and 497.689.
With `C[n+]1ccccc1/C=N/O` [Pralidoxime chloride], the B-score functional assay was -0.006. In addition, the Ranking score under setting [2] is recorded as 600.675.
Compound `CCCOc1cc(N)ccc1C(=O)OCCN(CC)CC` [Propoxycaine hydrochloride] gave a B-score functional assay of -2.561. Under setting [1], this compound returned a Ranking score of 73.2735.
(S)-(-)-Cycloserine displayed a B-score functional assay of -1.227. The compound further yielded a Ranking score under setting [1] of 89.398.
The matching figures for `N[C@@H](Cc1ccc(O)c(O)c1)C(=O)O` [Levodopa]: 0.049 and 265.141.
The compound `CC(=O)O[C@H]1C[C@@]2(C)[C@@H](C[C@@H](O)[C@H]3[C@@]4(C)CC[C@@H](O)[C@@H](C)[C@@H]4CC[C@@]32C)/C1=C(\CCC=C(C)C)C(=O)O` [Fusidic acid sodium salt] registered a B-score functional assay of -0.548. In addition, the Ranking score under setting [2] is 523.068.
The matching figures for `CC(C)(C#N)c1cc(Cn2cncn2)cc(C(C)(C)C#N)c1` [Anastrozole]: 0.728 and 558.153.
The compound `Cc1cc(C(C#N)c2ccc(Cl)cc2)c(Cl)cc1NC(=O)c1cc(I)cc(I)c1O` (stereo not shown) [Closantel] registered a B-score functional assay of -0.508. Besides, the Ranking score under setting [1] was determined as 203.568.
Regarding `Cc1ncc([N+](=O)[O-])n1CC(C)O` (stereo not shown) [Secnidazole], the B-score functional assay is on record as -0.391. For the same compound, the Ranking score under setting [2] is 548.521.
For `CCC(=O)OCC(=O)[C@@]1(OC(=O)CC)[C@H](C)C[C@H]2[C@H]3[C@H]([C@@H](O)C[C@@]21C)[C@@]1(C)C=CC(=O)C=C1C[C@H]3Cl` [Alclometasone dipropionate], the B-score functional assay was -2.188. Under setting [1], this compound gave a Ranking score of 175.417.
`CCN1CCN(C(=O)N[C@@H](C(=O)N[C@@H]2C(=O)N3[C@@H]2SC(C)(C)[C@@H]3C(=O)O)c2ccccc2)C(=O)C1=O` [Piperacillin sodium salt] yielded a B-score functional assay of -0.194. Under setting [2], the Ranking score was 549.729.
As for `Cc1c(NC(=O)c2cccnc2)c(=O)n(-c2ccccc2)n1C` [Nifenazone], the B-score functional assay was 0.488. In addition, the Ranking score under setting [2] is on record as 560.079.
`CCc1cc(C(N)=S)ccn1` [Ethionamide] registered a B-score functional assay of 0.084. Besides, the Ranking score under setting [1] is given as 210.286.
The compound `CN(C)CCC[C@@]1(c2ccc(F)cc2)OCc2cc(C#N)ccc21` [Escitalopram oxalate] returned a B-score functional assay of 0.103. In addition, under setting [2], the Ranking score came to 540.899.
For `C=CCN1CCCC1CNC(=O)c1cc2[nH]nnc2cc1OC.Cl` (stereo not shown) [Alizapride HCl], in that order: 2.201 and 642.464.
The compound `O=[N+]([O-])O[C@@H]1CO[C@H]2[C@@H]1OC[C@@H]2O` [Isosorbide mononitrate] came in with a B-score functional assay of -0.263. For the same compound, the Ranking score under setting [1] is given as 252.589.
In the case of `CNCC(O)c1ccc(O)c(O)c1` (stereo not shown) [Racepinephrine HCl], the B-score functional assay was -0.581. The Ranking score under setting [2] is reported as 629.338.
As to `O=C1c2ccccc2C(=O)C1c1ccccc1` [Phenindione], the B-score functional assay is listed as 1.774. Further, the Ranking score under setting [2] is on record as 569.166.
On to `CC(=O)Oc1ccccc1C(=O)O` [Acetylsalicylic acid], for which the Ranking score under setting [2] is reported as 1161.38. The B-score functional assay (B-score) was 2.017.
Turning to `Cc1cc(CC(=O)[O-])n(C)c1C(=O)c1ccc(Cl)cc1.[Na+]` [Zomepirac sodium salt], the B-score functional assay is listed as -0.802. Moreover, the Ranking score under setting [2] came to 527.712.
`CC(=O)OCC(=O)[C@@]1(O)[C@H](C)C[C@H]2[C@@H]3CCC4=CC(=O)C=C[C@]4(C)[C@@]3(F)[C@@H](O)C[C@@]21C` [Dexamethasone acetate]: the B-score functional assay was 0.046. For the same compound, the Ranking score under setting [2] is 586.678.
As to `COc1ccc(CCN2CCC(Nc3nc4ccccc4n3Cc3ccc(F)cc3)CC2)cc1` [Astemizole], the B-score functional assay is -0.026. Besides, under setting [1], the Ranking score is 231.853.
On to `NCc1ccccc1CC(=O)N[C@@H]1C(=O)N2C(C(=O)O)=C(CSc3nnnn3CC(=O)O)CS[C@H]12` [Ceforanide], for which the Ranking score under setting [2] came out at 1237.77. The same compound came in with a B-score functional assay (B-score) of 3.778.
Turning to `CC[C@@]1([C@H]2O[C@H]([C@H]3O[C@@](O)(CO)[C@H](C)C[C@@H]3C)C[C@H]2C)CC[C@H]([C@@]2(C)CC[C@]3(C[C@H](O)[C@@H](C)[C@@H]([C@H](C)[C@H](OC)[C@@H](C)C(=O)[O-])O3)O2)O1.[Na+]` [Monensin sodium salt], the B-score functional assay is given as -1.407. Further, the Ranking score under setting [1] is recorded as 257.93.
The matching figures for `N#CC(c1ccc(Cl)cc1)c1c(Cl)cc(-n2ncc(=O)[nH]c2=O)cc1Cl` (stereo not shown) [Diclazuril]: -9.074 and 46.9894.
`CN1C[C@H](CNC(=O)OCc2ccccc2)C[C@@H]2c3cccc4c3c(cn4C)C[C@H]21` [Metergoline] gave a B-score functional assay of -0.571. Further, under setting [1], the Ranking score was 269.388.
`NS(=O)(=O)c1cc2c(cc1Cl)NCNS2(=O)=O` [Hydrochlorothiazide] had a B-score functional assay of 0.079. The Ranking score under setting [2] came to 515.124.
The matching figures for `CN1CCC(=C2c3ccccc3Sc3ccccc32)CC1` [Pimethixene maleate]: -0.824 and 556.525.
In turn, `O=C(O)Cc1ccccc1Nc1c(Cl)cccc1Cl` [Diclofenac sodium] showed a B-score functional assay of -1.237. For the same compound, the Ranking score under setting [2] was determined as 464.103.
`CC(C)n1c(/C=C/C(O)CC(O)CC(=O)O)c(-c2ccc(F)cc2)c2ccccc21` (stereo not shown) [Fluvastatin sodium salt] yielded a B-score functional assay of -3.098. Also, under setting [1], the Ranking score came out at 89.7998.
The matching figures for `CC1(C)S[C@@H]2[C@H](NC(=O)[C@H](N)c3ccc(O)cc3)C(=O)N2[C@H]1C(=O)O` [Amoxicillin]: -0.114 and 277.274.
The matching figures for `CN1CC2c3ccccc3Oc3ccc(Cl)cc3C2C1` (stereo not shown) [Asenapine maleate]: -0.488 and 127.491.
`O=C(CCCCCCC(=O)Nc1ccccc1)NO` [Vorinostat] displayed a B-score functional assay of -0.284. Under setting [2], the Ranking score worked out at 583.003.
`C[C@@H](O[C@H]1OCCN(Cc2n[nH]c(=O)[nH]2)[C@H]1c1ccc(F)cc1)c1cc(C(F)(F)F)cc(C(F)(F)F)c1` [Aprepitant] displayed a B-score functional assay of -3.7. The compound further showed a Ranking score under setting [1] of 111.812.
